Measured values reported in ChEMBL document CHEMBL5223188, “Discovery of OICR12694: A Novel, Potent, Selective, and Orally Bioavailable BCL6 BTB Inhibitor” (ACS Med Chem Lett, 2023).

Assays:
[1] = in vitro; settings: human, liver microsomes
[2] = in vitro; settings: mouse, liver microsomes
[3] = in vitro; settings: human, Caco-2

Row | Compound | remaining at 1 h [1] [%] | remaining at 1 h [2] [%] | Papp A→B [3] [×10⁻⁶ cm/s]
1 | C[C@H]1COCCN1c1cc(NC(=O)Cn2cc(-c3cc(Cl)c(O)c(C(N)=O)c3)c3c(=O)n(C)cnc32)c(Cl)cn1 | 27 | 63 | 3.6
2 | C[C@H]1CN(C)CCN1c1cc(NC(=O)Cn2cc(-c3cc(F)c(O)c(C(N)=O)c3F)c3c(=O)n(C)cnc32)c(Cl)c(F)n1 | 16 | 43 | 2.8
3 | C[C@H]1CN(C)CCN1c1cc(NC(=O)Cn2cc(-c3cc(F)c(O)c(C(N)=O)c3)c3c(=O)n(C)cnc32)c(Cl)cn1 | 62 | 49 | 0.5
4 | C[C@@H]1COCCN1c1cc(NC(=O)Cn2cc(-c3cc(Cl)c(O)c(C(N)=O)c3)c3c(=O)n(C)cnc32)c(Cl)cn1 | 55 | 36 | 3
5 | Cc1nc2c(c(-c3cc(C(N)=O)c(O)c(F)c3F)cn2CC(=O)Nc2cc(N3CCN(C)C[C@@H]3C)ncc2Cl)c(=O)n1C | 73 | 65 | 4.4
